Experimental data reported in publication PMC5667507, “A novel ^18F-labelled high affinity agent for PET imaging of the translocator protein” (Chemical Science, 2015).

Tests used:
TSPO [1] = target: T1, TSPO (Mus musculus, UniProt P50637); experiment: In vitro autoradiography, brain sections of G7 orthotopic mouse model of human glioblastoma; type: binding; settings: contralateral region; 3 nM tracer, 10 µM PK11195
T1 construct: The brain from a mouse bearing an intracranial G7 tumour was used; from tissue; host or cells: 20 µm coronal cryosections of CD1 nude mouse brain with an intracranial G7 human glioblastoma xenograft
Text: (§1) An initial investigation of the potential of [^18F]-AB5186 6 to bind to TSPO in brain involved in vitro autoradiography using a G7 orthotopic mouse model of human glioblastoma.[25] Autoradiography allows the distribution of a radiolabelled compound to be visualised in intact biological tissue sections.[26] […] Displacement of [^18F]-AB5186 6 by the TSPO ligand PK11195 confirms the in vitro specificity of the tracer for TSPO in brain tissue.
(§2) The fraction containing 18F-AB5186 6 was concentrated in vacuo and then reconstituted in 2 mL of a 10% ethanol/0.9% saline solution. Passing the sample through a pre-treated 13 mm 0.2 µm filter then completed formulation of the radiotracer. The identity of the radiolabelled product was confirmed by co-injection with a cold sample of AB5186 6. Quality control was performed by analytical HPLC, using a Phenomenex Synergi 4 µm Hydro-RP 80A (150 × 4.60 mm) column and the mobile phase described above for the semi-prep HPLC purification step. Radiochemical purity was determined by measuring the area under the peaks on the chromatogram, and specific activity was calculated using a standard curve.
(§3) 8. Radio-HPLC chromatogram of [18F]-AB5186 (6) after purification
(§4) CD1 nude mice had […] of either G7 or U87MG-Luc2 cultured cells implanted intracranially into the caudate nucleus using standard stereotactic procedures. Successful implantation of U87MG-Luc2 tumours was confirmed by performing IVIS® scans approximately two weeks following the procedure. Animals were used for ex vivo autoradiography and PET imaging studies 21–30 days post tumour implantation. Prior to any procedure mice were anaesthetised using inhaled isoflurane (in medical oxygen; induction 5.0%; maintenance 2.0–3.0%). Body temperature was maintained using a heating pad.
(§5) 10. In vitro Autoradiography5 Methodology
(§6) The brain from a mouse bearing an intracranial G7 tumour was used. […]
(§7) temperature. Non-specific binding was determined in adjacent sections by incubating with [18F]- AB5186 6 in the presence of 10 µM PK11195 (Tocris, UK). […]

TSPO [2] = experiment: as above; type: binding
Text: as §1, §2, §3, §4, §5, §6, §7

T1 sequence (P50637 whole entry): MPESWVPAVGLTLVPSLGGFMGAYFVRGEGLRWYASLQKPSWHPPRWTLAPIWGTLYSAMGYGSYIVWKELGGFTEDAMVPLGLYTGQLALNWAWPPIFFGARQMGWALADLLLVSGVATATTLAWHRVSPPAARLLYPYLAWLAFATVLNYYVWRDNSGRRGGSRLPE

## CCN(CC)C(=O)c1nc2ccccc2c(-c2ccccc2)c1C[18F] [[^18F]-AB5186 6]
TSPO [1]
  displacement of tracer binding by excess unlabelled PK11195: 23%
TSPO [2]; in vitro autoradiograms, G7 xenograft
  total binding, tumour tissue compared to contralateral side: markedly increased
TSPO [2]; tumour tissue, 3 nM tracer, 10 µM PK11195
  displacement of tracer binding by excess unlabelled PK11195: 76%
